Laboratory results from ChEMBL document CHEMBL1743341, “Cytochrome p450 enzymes mechanism based inhibitors: common sub-structures and reactivity” (Curr Drug Metab, 2005).
“And” between values parts separate entries of the source, which are not always exact repeats. Equal values may be shown once.

Columns and labels:
Cytochrome P450 2B6 [1] = molecular target: T1, Cytochrome P450 2B6 (Homo sapiens, UniProt P20813); experiment: Mechanism based inhibition of human cytochrome P450 2B6, partition ratio (value refers to P450 expressed in baculovirus infected insect cells); assay type: ADME
T1 sequence (P20813 whole entry): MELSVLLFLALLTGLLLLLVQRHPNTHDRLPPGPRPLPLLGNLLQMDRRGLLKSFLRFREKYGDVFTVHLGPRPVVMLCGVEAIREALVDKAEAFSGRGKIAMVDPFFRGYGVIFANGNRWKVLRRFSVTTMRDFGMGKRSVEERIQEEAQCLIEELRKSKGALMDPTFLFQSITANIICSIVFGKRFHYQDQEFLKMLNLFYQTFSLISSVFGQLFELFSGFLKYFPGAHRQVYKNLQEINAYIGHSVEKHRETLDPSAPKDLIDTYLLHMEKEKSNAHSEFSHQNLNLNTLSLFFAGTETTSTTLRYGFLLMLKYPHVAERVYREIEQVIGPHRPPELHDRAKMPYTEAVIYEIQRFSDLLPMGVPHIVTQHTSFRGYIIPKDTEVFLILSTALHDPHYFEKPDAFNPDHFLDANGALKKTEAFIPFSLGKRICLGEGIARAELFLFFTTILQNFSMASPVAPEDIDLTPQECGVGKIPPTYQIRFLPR

CYP2A6 [2] = molecular target: T2, CYP2A6 (Homo sapiens, UniProt P11509); experiment: (§1) Mechanism based inhibition of human cytochrome P450 2A6 measured by coumarin 7-hydroxylation; assay type: ADME; conditions: human, probe coumarin (7-hydroxylation)
T2 sequence (P11509 whole entry): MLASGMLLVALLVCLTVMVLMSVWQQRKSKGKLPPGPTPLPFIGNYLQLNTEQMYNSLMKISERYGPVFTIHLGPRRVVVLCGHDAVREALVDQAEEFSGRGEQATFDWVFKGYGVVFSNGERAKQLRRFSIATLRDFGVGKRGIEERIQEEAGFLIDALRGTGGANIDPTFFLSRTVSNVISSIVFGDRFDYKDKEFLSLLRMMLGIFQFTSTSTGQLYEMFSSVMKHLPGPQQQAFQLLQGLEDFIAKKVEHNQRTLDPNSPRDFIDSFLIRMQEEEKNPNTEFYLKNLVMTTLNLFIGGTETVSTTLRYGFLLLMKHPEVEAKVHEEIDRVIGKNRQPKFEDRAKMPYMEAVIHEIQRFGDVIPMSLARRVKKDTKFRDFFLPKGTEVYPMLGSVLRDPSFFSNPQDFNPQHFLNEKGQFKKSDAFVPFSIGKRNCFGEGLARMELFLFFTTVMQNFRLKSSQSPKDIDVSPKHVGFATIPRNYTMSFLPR

Cytochrome P450 2A6 [3] = molecular target: T3, Cytochrome P450 2A6 (Homo sapiens, UniProt P11509); experiment: as §1; assay type: ADME
T3 sequence (P11509 whole entry): T2 sequence (P11509 whole entry)

Cytochrome P450 3A4 [4] = molecular target: T4, Cytochrome P450 3A4 (Homo sapiens, UniProt P08684); experiment: (§2) Mechanism based inhibition of human cytochrome P450 3A4 measured by testosterone 6-beta hydroxylation; assay type: ADME
CYP3A4 [5] = molecular target: T5, CYP3A4 (Homo sapiens, UniProt P08684); experiment: as §2; assay type: ADME; conditions: human, probe testosterone (6-beta hydroxylation)
Cytochrome P450 3A4 [6] = molecular target: T4, Cytochrome P450 3A4; experiment: (§3) Mechanism based inhibition of human cytochrome P450 3A4 measured by midazolam 1'-hydroxylation; assay type: ADME
CYP3A4 [7] = molecular target: T5, CYP3A4; experiment: as §3; assay type: ADME; conditions: probe midazolam (1'-hydroxylation)
CYP3A4 [8] = molecular target: T5, CYP3A4; experiment: Mechanism based inhibition of human cytochrome P450 3A4 measured by triazolam alpha- hydroxylation using human liver microsomes; assay type: ADME, Microsome; conditions: probe triazolam (alpha-hydroxylation)
CYP3A4 [9] = molecular target: T5, CYP3A4; experiment: Mechanism based inhibition of human cytochrome P450 3A4 measured by triazolam 4- hydroxylation using recombinant CYP3A4; assay type: ADME; conditions: recombinant CYP3A4, probe triazolam (4-hydroxylation)
CYP3A4 [10] = molecular target: T5, CYP3A4; experiment: Mechanism based inhibition of human cytochrome P450 3A4 measured by triazolam 4- hydroxylation using human liver microsomes; assay type: ADME, Microsome; conditions: probe triazolam (4-hydroxylation)
CYP3A4 [11] = molecular target: T5, CYP3A4; experiment: Mechanism based inhibition of human cytochrome P450 3A4 measured by triazolam alpha- hydroxylation using recombinant CYP3A4; assay type: ADME; conditions: recombinant CYP3A4, probe triazolam (alpha-hydroxylation)
Cytochrome P450 2B6 [12] = molecular target: T1, Cytochrome P450 2B6; experiment: (§4) Mechanism based inhibition of human cytochrome P450 2B6 measured by 7-EFC O-deethylation
Cytochrome P450 2B1 = molecular target: T6, Cytochrome P450 2B1 (Rattus norvegicus, UniProt P00176); experiment: Mechanism based inhibition of rat cytochrome P450 2B1 measured by 7-EFC O-deethylation
T6 sequence (P00176 whole entry): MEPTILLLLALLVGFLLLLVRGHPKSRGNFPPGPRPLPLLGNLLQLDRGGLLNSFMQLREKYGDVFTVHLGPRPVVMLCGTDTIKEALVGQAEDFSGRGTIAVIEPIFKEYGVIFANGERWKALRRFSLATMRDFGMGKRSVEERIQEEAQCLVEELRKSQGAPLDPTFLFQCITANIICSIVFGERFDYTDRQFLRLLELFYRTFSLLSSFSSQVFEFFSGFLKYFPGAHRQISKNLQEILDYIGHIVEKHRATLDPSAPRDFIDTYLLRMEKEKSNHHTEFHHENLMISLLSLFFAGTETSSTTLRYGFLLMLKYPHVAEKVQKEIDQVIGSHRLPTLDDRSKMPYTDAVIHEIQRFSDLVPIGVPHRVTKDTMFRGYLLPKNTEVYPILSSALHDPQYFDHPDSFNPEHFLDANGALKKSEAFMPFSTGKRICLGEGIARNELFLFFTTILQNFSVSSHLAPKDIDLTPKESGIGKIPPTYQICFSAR

Cytochrome P450 3A4 [13] = molecular target: T4, Cytochrome P450 3A4; experiment: Mechanism based inhibition of human cytochrome P450 3A4 measured by midazolam hydroxylation in vivo; assay type: ADME, organism-based
Cytochrome P450 2B6 [14] = molecular target: T1, Cytochrome P450 2B6; experiment: as §4; remark: listed apart in the source
Cytochrome P450 3A4 [15] = molecular target: T4, Cytochrome P450 3A4; experiment: (§5) Mechanism based inhibition of human cytochrome P450 3A4 measured by N-demethylation of erythromycin; assay type: ADME
CYP3A4 [16] = molecular target: T5, CYP3A4; experiment: as §5; assay type: ADME; conditions: human, probe erythromycin (N-demethylation)
CYP2A6 [17] = molecular target: T2, CYP2A6; experiment: (§6) Mechanism based inhibition of human cytochrome P450 2A6 measured by coumarin 7-hxdroxylation using purified P450; assay type: ADME; conditions: human, purified CYP2A6, probe coumarin (7-hydroxylation)
Cytochrome P450 2A6 [18] = molecular target: T3, Cytochrome P450 2A6; experiment: as §6; assay type: ADME
CYP2A6 [19] = molecular target: T2, CYP2A6; experiment: (§7) Mechanism based inhibition of human cytochrome P450 2A6 measured by coumarin 7-hydroxylation using human liver microsomes; assay type: ADME, Microsome; conditions: human, human liver microsomes, probe coumarin
Cytochrome P450 2A6 [20] = molecular target: T3, Cytochrome P450 2A6; experiment: as §7; assay type: ADME, Microsome
Cytochrome P450 2A6 [21] = molecular target: T3, Cytochrome P450 2A6; experiment: Mechanism based inhibition of human cytochrome P450 2A6, partition ratio; assay type: ADME
Cytochrome P450 3A4 [22] = molecular target: T4, Cytochrome P450 3A4; experiment: Mechanism based inhibition of human cytochrome P450 3A4 measured by testosterone 6-beta hydroxylation and midazolam 1'-hydroxylation; assay type: ADME
Cytochrome P450 3A4 [23] = molecular target: T4, Cytochrome P450 3A4; experiment: (§8) Mechanism based inhibition of human cytochrome P450 3A4 measured by testosterone 6-beta hydroxylation using human liver microsomes; assay type: ADME, Microsome
CYP3A4 [24] = molecular target: T5, CYP3A4; experiment: as §8; assay type: ADME, Microsome; conditions: human, liver microsomes, probe testosterone (6-beta hydroxylation)
Cytochrome P450 3A4 [25] = molecular target: T4, Cytochrome P450 3A4; experiment: (§9) Mechanism based inhibition of human cytochrome P450 3A4 measured by testosterone 6-beta hydroxylation using a recombinant system; assay type: ADME
CYP3A4 [26] = molecular target: T5, CYP3A4; experiment: as §9; assay type: ADME; conditions: human, recombinant CYP3A4 system, probe testosterone (6-beta hydroxylation)
CYP3A5 = CYP3A5 (Homo sapiens, UniProt P20815); experiment: (§10) Mechanism based inhibition of human cytochrome P450 3A5 using expressed CYP3A5 cDNA; assay type: ADME; conditions: human, cDNA-expressed CYP3A5
Cytochrome P450 3A5 = Cytochrome P450 3A5 (Homo sapiens, UniProt P20815); experiment: as §10; assay type: ADME
Cytochrome P450 3A4 [27] = molecular target: T4, Cytochrome P450 3A4; experiment: (§11) Mechanism based inhibition of human cytochrome P450 3A4 using expressed CYP3A4 cDNA; assay type: ADME
CYP3A4 [28] = molecular target: T5, CYP3A4; experiment: as §11; assay type: ADME; conditions: human, cDNA-expressed CYP3A4
Cytochrome P450 2B6 [29] = molecular target: T1, Cytochrome P450 2B6; experiment: Mechanism based inhibition of human cytochrome P450 2B6, partition ratio (value refers to P450 expressed in lymphoblastoid cells); assay type: ADME, cell-based

T5 sequence (P08684 whole entry): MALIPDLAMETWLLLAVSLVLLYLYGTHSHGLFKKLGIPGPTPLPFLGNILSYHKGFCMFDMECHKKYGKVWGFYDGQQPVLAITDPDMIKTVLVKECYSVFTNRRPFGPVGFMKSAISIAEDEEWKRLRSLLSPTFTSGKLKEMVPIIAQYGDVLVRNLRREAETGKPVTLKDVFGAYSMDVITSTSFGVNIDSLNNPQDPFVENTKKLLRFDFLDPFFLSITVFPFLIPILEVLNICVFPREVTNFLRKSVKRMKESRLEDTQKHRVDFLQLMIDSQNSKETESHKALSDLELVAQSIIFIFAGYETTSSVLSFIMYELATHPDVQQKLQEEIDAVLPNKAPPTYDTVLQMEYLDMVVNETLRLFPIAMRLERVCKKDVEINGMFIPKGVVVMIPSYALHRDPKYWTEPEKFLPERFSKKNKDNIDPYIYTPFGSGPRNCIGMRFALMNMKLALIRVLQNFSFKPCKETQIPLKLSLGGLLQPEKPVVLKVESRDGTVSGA
T4 sequence (P08684 whole entry): as above
Sequence of CYP3A5 (P20815 whole entry): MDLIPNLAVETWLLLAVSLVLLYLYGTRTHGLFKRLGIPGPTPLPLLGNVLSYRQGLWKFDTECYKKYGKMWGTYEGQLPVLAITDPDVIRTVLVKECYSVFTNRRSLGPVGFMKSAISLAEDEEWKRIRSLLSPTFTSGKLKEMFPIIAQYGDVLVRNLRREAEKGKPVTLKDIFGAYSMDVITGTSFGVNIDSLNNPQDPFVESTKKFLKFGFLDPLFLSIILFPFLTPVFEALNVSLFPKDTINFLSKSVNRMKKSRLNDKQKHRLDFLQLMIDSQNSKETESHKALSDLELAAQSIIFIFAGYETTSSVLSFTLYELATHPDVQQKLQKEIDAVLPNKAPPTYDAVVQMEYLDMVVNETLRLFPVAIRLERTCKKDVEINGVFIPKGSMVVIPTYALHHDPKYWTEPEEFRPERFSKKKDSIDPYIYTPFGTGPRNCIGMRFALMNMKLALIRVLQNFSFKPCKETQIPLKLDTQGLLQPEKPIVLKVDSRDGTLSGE
Sequence of Cytochrome P450 3A5 (P20815 whole entry): as above

COc1c2ccoc2cc2oc(=O)ccc12 [BERGAPTEN]
Partition ratio (Cytochrome P450 2B6 [1]): 57.4 | kinact (CYP2A6 [2]): 0.006 s⁻¹ | Ki (Cytochrome P450 2A6 [3]): 12000 nM

CC/C(=C(\c1ccccc1)c1ccc(OCCN)cc1)c1ccccc1 [DESMETHYL TAMOXIFEN]
Ki (Cytochrome P450 3A4 [4]): 2600 nM | kinact (CYP3A4 [5]): 0.00133 s⁻¹ | Ki (Cytochrome P450 3A4 [6]): 12000 nM | kinact (CYP3A4 [7]): 0.00217 s⁻¹

CC[C@H]1OC(=O)[C@H](C)[C@@H](O[C@H]2C[C@@](C)(OC)[C@@H](O)[C@H](C)O2)[C@H](C)[C@@H](O[C@@H]2O[C@H](C)C[C@H](N(C)C)[C@H]2O)[C@](C)(O)C[C@@H](C)C(=O)[C@H](C)[C@@H](O)[C@]1(C)O [ERYTHROMYCIN]
kinact (CYP3A4 [8]): 0.00103 s⁻¹ | kinact (CYP3A4 [9]): 0.00162 s⁻¹ | mechanism based inhibition (Cytochrome P450 3A4 [4]): Cytochrome P450 mechanistic inhibitor: PMID 9806945 | kinact (CYP3A4 [10]): 0.000917 s⁻¹ | kinact (CYP3A4 [11]): 0.00288 s⁻¹

C#C[C@]1(O)CC[C@H]2[C@@H]3CCc4cc(O)ccc4[C@H]3CC[C@@]21C [ETHINYL ESTRADIOL]
Ki (Cytochrome P450 2B6 [12]): 900 nM | Ki (Cytochrome P450 2B1): 11000 nM | mechanism based inhibition (Cytochrome P450 3A4 [13]): Cytochrome P450 mechanistic inhibitor: PMID 11012556 | Ki (Cytochrome P450 2B6 [14]): 800 nM

COc1cc2c(c(OC)c1OC)-c1c(cc3c(c1OC)OCO3)C[C@H](C)[C@](C)(O)[C@H]2OC(=O)c1ccccc1 [GOMISIN C]
Ki (Cytochrome P450 3A4 [15]): 399 nM | kinact (CYP3A4 [16]): 0.00153 s⁻¹

Cc1coc2c1CCC(C)C2 (stereo not given) [MENTHOFURAN]
kinact (CYP2A6 [17]): 0.00417 s⁻¹ | Ki (Cytochrome P450 2A6 [18]): 840 nM | kinact (CYP2A6 [19]): 0.00367 s⁻¹ | Ki (Cytochrome P450 2A6 [20]): 2500 nM | Partition ratio (Cytochrome P450 2A6 [21]): 3.5

COCC(=O)O[C@]1(CCN(C)CCCc2nc3ccccc3[nH]2)CCc2cc(F)ccc2[C@@H]1C(C)C [MIBEFRADIL]
mechanism based inhibition (Cytochrome P450 3A4 [22]): Cytochrome P450 mechanistic inhibitor: PMID 10640508

COc1ccc(CCNCCCC(C#N)(c2ccc(OC)c(OC)c2)C(C)C)cc1OC (stereo not given) [NORVERAPAMIL]
Ki (Cytochrome P450 3A4 [23]): 2110 nM | kinact (CYP3A4 [24]): 0.0035 s⁻¹ | Ki (Cytochrome P450 3A4 [25]): 5890 nM | kinact (CYP3A4 [26]): 0.0187 s⁻¹ | kinact (CYP3A5): 0.00117 s⁻¹ | Ki (Cytochrome P450 3A5): 4530 nM | Ki (Cytochrome P450 3A4 [27]): 10300 nM | kinact (CYP3A4 [28]): 0.005 s⁻¹

O=c1ccc2cc3ccoc3cc2o1 [PSORALEN]
Partition ratio (Cytochrome P450 2B6 [29]): 46 and 71.2 | kinact (CYP2A6 [2]): 0.005 s⁻¹ | Ki (Cytochrome P450 2A6 [3]): 600 nM
